Inconclusive results and toxic doses are left out.
System: L1210 leukemia ip in BDF1 mice, survival T/C
Assay: NCI In Vivo Anticancer Drug Screen. Data for tumor model L1210 Leukemia (intraperitoneal) in B6D2F1 (BDF1) mice
Settings: endpoint: mean survival time, higher = longer survival
Procedure, shortened: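 Value reflects the ratio of survival in compound-treated mice to survival in vehicle-treated controls, with both groups carrying the same transplanted tumor.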

[1] = dose: 100.0 mg/kg/injection, schedule: Q04DX003 (ip), vehicle: saline
[2] = dose: 200.0 mg/kg/injection, schedule: Q04DX003 (ip), vehicle: saline
[3] = dose: 100.0 mg/kg/injection, schedule: Q01DX009 (ip), vehicle: Klucel (hydroxypropylcellulose) (HPC)
[4] = dose: 200.0 mg/kg/injection, schedule: Q01DX009 (ip), vehicle: Klucel (hydroxypropylcellulose) (HPC)
[5] = dose: 400.0 mg/kg/injection, schedule: Q01DX009 (ip), vehicle: Klucel (hydroxypropylcellulose) (HPC)
[6] = dose: 100.0 mg/kg/injection, schedule: Q01DX009 (ip), vehicle: saline with Tween-80
[7] = dose: 100.0 mg/kg/injection, schedule: Q04DX003 (ip), vehicle: saline with Tween-80
[8] = dose: 200.0 mg/kg/injection, schedule: Q01DX009 (ip), vehicle: saline with Tween-80
[9] = dose: 200.0 mg/kg/injection, schedule: Q04DX003 (ip), vehicle: saline with Tween-80
[10] = dose: 400.0 mg/kg/injection, schedule: Q04DX003 (ip), vehicle: saline with Tween-80
[11] = dose: 100.0 mg/kg/injection, schedule: Q04DX003 (ip), vehicle: Klucel (hydroxypropylcellulose) (HPC)
[12] = dose: 200.0 mg/kg/injection, schedule: Q04DX003 (ip), vehicle: Klucel (hydroxypropylcellulose) (HPC)
[13] = dose: 400.0 mg/kg/injection, schedule: Q01DX009 (ip), vehicle: saline with Tween-80
[14] = dose: 100.0 mg/kg/injection, schedule: Q01DX001 (ip), vehicle: saline
[15] = dose: 200.0 mg/kg/injection, schedule: Q01DX001 (ip), vehicle: saline
[16] = dose: 400.0 mg/kg/injection, schedule: Q01DX001 (ip), vehicle: saline

O=[N+]([O-])c1ccc(N/N=C(/Cl)c2ccccc2)cc1
T/C (dose: 50.0 mg/kg/injection, schedule: Q04DX003 (ip), vehicle: saline): 101 % of control | T/C [1]: 98 % of control | T/C [2]: 96 % of control

CC(C)(O)c1cnc(OCc2ccccc2)nc1OCc1ccccc1
T/C [3]: 98 % of control | T/C (dose: 100.0 mg/kg/injection, schedule: Q04DX003 (ip), vehicle: other): 101 % of control | T/C [4]: 100 % of control | T/C (dose: 200.0 mg/kg/injection, schedule: Q04DX003 (ip), vehicle: other): 106 % of control | T/C [5]: 103 % of control | T/C (dose: 400.0 mg/kg/injection, schedule: Q04DX003 (ip), vehicle: other): 101 % of control

CC[N+](CC)(CC)CCCCC[N+](CC)(CC)CC
T/C (dose: 12.5 mg/kg/injection, schedule: Q01DX009 (ip), vehicle: water): 106 % of control | T/C (dose: 25.0 mg/kg/injection, schedule: Q01DX009 (ip), vehicle: water): 101 % of control | T/C (dose: 25.0 mg/kg/injection, schedule: Q04DX003 (ip), vehicle: saline with Tween-80): 94 % of control | T/C (dose: 50.0 mg/kg/injection, schedule: Q04DX003 (ip), vehicle: saline with Tween-80): 94 % of control

OC(c1ccccc1)C1(O)C2CCC1C2 (configuration not stated)
T/C (dose: 75.0 mg/kg/injection, schedule: Q04DX002 (ip), vehicle: Klucel (hydroxypropylcellulose) (HPC)): 96 % of control | T/C (dose: 150.0 mg/kg/injection, schedule: Q04DX002 (ip), vehicle: Klucel (hydroxypropylcellulose) (HPC)): 104 % of control | T/C (dose: 300.0 mg/kg/injection, schedule: Q04DX002 (ip), vehicle: Klucel (hydroxypropylcellulose) (HPC)): 96 % of control

CCN(CC)CCCNC=O
T/C (dose: 100.0 mg/kg/injection, schedule: Q01DX009 (ip), vehicle: saline): 94 % of control | T/C [1]: 111 % of control | T/C (dose: 200.0 mg/kg/injection, schedule: Q01DX009 (ip), vehicle: saline): 94 % of control | T/C [2]: 102 % of control | T/C (dose: 400.0 mg/kg/injection, schedule: Q01DX009 (ip), vehicle: saline): 94 % of control | T/C (dose: 400.0 mg/kg/injection, schedule: Q04DX003 (ip), vehicle: saline): 108 % of control

CC1CCCC(CN=Cc2cc([N+](=O)[O-])ccc2O)[N-]1.CC1CCCC(CN=Cc2cc([N+](=O)[O-])ccc2O)[N-]1.[Ni+2] (configuration not stated)
T/C [6]: 86 % of control | T/C [7]: 95 % of control | T/C [8]: 86 % of control | T/C [9]: 95 % of control | T/C [10]: 86 % of control

CCCCNC(=S)NCCCN(C)C
T/C [11]: 101 % of control | T/C [12]: 98 % of control

O=C(N/N=C/c1[nH]c(=S)[nH]c(=O)c1Cc1ccc(Cl)cc1)c1ccccc1
T/C (dose: 100.0 mg/kg/injection, schedule: Q01DX001 (ip), vehicle: saline with Tween-80): 96 % of control | T/C (dose: 200.0 mg/kg/injection, schedule: Q01DX001 (ip), vehicle: saline with Tween-80): 92 % of control | T/C (dose: 400.0 mg/kg/injection, schedule: Q01DX001 (ip), vehicle: saline with Tween-80): 123 % of control

COc1ccc(Cl)cc1N
T/C [3]: 86 % of control | T/C [6]: 100 % of control | T/C [11]: 93 % of control | T/C [8]: 94 % of control | T/C [12]: 92 % of control | T/C [13]: 104 % of control

O=C(Nc1cccc(F)c1)N(Cc1ccccc1)c1ccccc1
T/C [6]: 91 % of control | T/C [8]: 91 % of control | T/C [13]: 98 % of control

Cn1c(CC(O)(C(F)(F)F)C(F)(F)F)ccc1CC(O)(C(F)(F)F)C(F)(F)F
T/C (dose: 100.0 mg/kg/injection, schedule: Q01DX001 (ip), vehicle: gum acacia): 107 % of control | T/C (dose: 200.0 mg/kg/injection, schedule: Q01DX001 (ip), vehicle: gum acacia): 103 % of control | T/C (dose: 400.0 mg/kg/injection, schedule: Q01DX001 (ip), vehicle: gum acacia): 98 % of control

NC(=S)N/N=C/c1ncccc1O
T/C (dose: 1.8 mg/kg/injection, schedule: Q01DX Z (ip), vehicle: saline): 111 % of control | T/C (dose: 2.7 mg/kg/injection, schedule: Q01DX Z (ip), vehicle: saline): 113 % of control | T/C (dose: 4.1 mg/kg/injection, schedule: Q01DX Z (ip), vehicle: saline): 118 % of control | T/C (dose: 6.25 mg/kg/injection, schedule: Q01DX015 (ip), vehicle: saline): 122 % of control | T/C (dose: 6.25 mg/kg/injection, schedule: Q01DX Z (ip), vehicle: saline): 120 % of control | T/C (dose: 12.5 mg/kg/injection, schedule: Q01DX Z (ip), vehicle: saline): 153 % of control | T/C (dose: 21.0 mg/kg/injection, schedule: Q03HX032 (ip), vehicle: saline with Tween-80): 119 % of control | T/C (dose: 25.0 mg/kg/injection, schedule: Q01DX015 (ip), vehicle: saline): 150 % of control | T/C (dose: 25.0 mg/kg/injection, schedule: Q01DX Z (ip), vehicle: saline): 159 % of control | T/C (dose: 47.0 mg/kg/injection, schedule: Q03HX032 (ip), vehicle: saline with Tween-80): 120 % of control | T/C (dose: 50.0 mg/kg/injection, schedule: Q01DX Z (ip), vehicle: saline): 170 % of control | T/C (dose: 100.0 mg/kg/injection, schedule: Q01DX015 (ip), vehicle: saline): 111 % of control | T/C (dose: 100.0 mg/kg/injection, schedule: Q01DX Z (ip), vehicle: saline): 165 % of control | T/C (dose: 100.0 mg/kg/injection, schedule: Q01DX Z (oral), vehicle: saline): 112 % of control | T/C (dose: 150.0 mg/kg/injection, schedule: Q01DX Z (ip), vehicle: saline): 153 % of control | T/C (dose: 200.0 mg/kg/injection, schedule: Q01DX015 (ip), vehicle: saline): 94 % of control | T/C (dose: 335.0 mg/kg/injection, schedule: Q01DX Z (ip), vehicle: saline): 118 % of control | T/C (dose: 335.0 mg/kg/injection, schedule: Q01DX Z (oral), vehicle: saline): 115 % of control | T/C (dose: 400.0 mg/kg/injection, schedule: Q01DX015 (ip), vehicle: saline): 90 % of control

Nc1nc(N)c(N=Nc2ccc(S(N)(=O)=O)cc2)cc1N=Nc1ccccc1
T/C (dose: 100.0 mg/kg/injection, schedule: Q01DX001 (ip), vehicle: carboxymethylcellulose (CMC)): 94 % of control | T/C (dose: 200.0 mg/kg/injection, schedule: Q01DX001 (ip), vehicle: carboxymethylcellulose (CMC)): 94 % of control | T/C (dose: 400.0 mg/kg/injection, schedule: Q01DX001 (ip), vehicle: carboxymethylcellulose (CMC)): 100 % of control

Cc1cc([N+](=O)[O-])c(NCCOC(=O)c2ccc([N+](=O)[O-])cc2)c([N+](=O)[O-])c1
T/C [3]: 106 % of control | T/C [4]: 112 % of control | T/C [5]: 98 % of control

CN(C)c1ccc(N=Nc2cccc([N+](=O)[O-])c2)cc1
T/C [3]: 105 % of control | T/C [4]: 97 % of control | T/C [5]: 100 % of control

CCOC(=O)CC1=NC(C)(C)CC(C)O1 (configuration not stated)
T/C (dose: 100.0 mg/kg/injection, schedule: Q04DX003 (ip), vehicle: saline sonified): 98 % of control | T/C (dose: 200.0 mg/kg/injection, schedule: Q04DX003 (ip), vehicle: saline sonified): 92 % of control | T/C (dose: 400.0 mg/kg/injection, schedule: Q04DX003 (ip), vehicle: saline sonified): 115 % of control

Cc1nc(N)c(=O)[nH]c1C
T/C (dose: 100.0 mg/kg/injection, schedule: Q01DX001 (ip), vehicle: Klucel (hydroxypropylcellulose) (HPC)): 104 % of control | T/C [6]: 90 % of control | T/C [7]: 100 % of control | T/C (dose: 200.0 mg/kg/injection, schedule: Q01DX001 (ip), vehicle: Klucel (hydroxypropylcellulose) (HPC)): 97 % of control | T/C [8]: 112 % of control | T/C [9]: 105 % of control | T/C (dose: 400.0 mg/kg/injection, schedule: Q01DX001 (ip), vehicle: Klucel (hydroxypropylcellulose) (HPC)): 97 % of control | T/C [13]: 104 % of control | T/C [10]: 114 % of control

OCC1OC(n2cnc3c([Se])ncnc32)C(O)C1O (configuration not stated)
T/C (dose: 100.0 mg/kg/injection, schedule: Q01DX005 (ip), vehicle: saline): 105 % of control

CCCCN(CCCC)C(=O)OCC
T/C [14]: 103 % of control | T/C [15]: 94 % of control | T/C [16]: 101 % of control

CCOC(=O)C1=NN(c2ccccc2)C(=O)C1N=Nc1ccc(S(=O)(=O)Nc2ccccn2)cc1 (configuration not stated)
T/C [14]: 102 % of control | T/C [15]: 96 % of control | T/C [16]: 93 % of control

CCOC1=C(NC(C)=O)C(=O)c2ccccc2C1=O
T/C (dose: 75.0 mg/kg/injection, schedule: Q01DX001 (ip), vehicle: other): 100 % of control

Reference: PubChem BioAssay AID248 (DTP/NCI, 2004)
